PubChem BioAssay (NCI)
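The compound was tested at five concentrations on cells cultured in 96-well plates, with a 48-hour exposure period. The concentration for full growth arrest is given as TGI.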

Legend:
Experiment in all cases: NCI tumour cell line growth inhibition, 48 h
[1] = tested on: BT-549 breast
[2] = tested on: UACC-62 melanoma
[3] = tested on: SK-MEL-2 melanoma
[4] = tested on: LOX IMVI melanoma
[5] = tested on: MCF7 breast
[6] = tested on: SK-MEL-28 melanoma
[7] = tested on: CAKI-1 renal
[8] = tested on: HCC-2998 colon
[9] = tested on: UACC-257 melanoma
[10] = tested on: T-47D breast
[11] = tested on: MDA-MB-435
[12] = tested on: IGROV1 ovarian
[13] = tested on: UO-31 renal
[14] = tested on: SR leukemia
[15] = tested on: SW-620 colon
[16] = tested on: A549 NSCLC
[17] = tested on: COLO 205 colon
[18] = tested on: HCT-15 colon
[19] = tested on: OVCAR-8 ovarian
[20] = tested on: HT29 colon
[21] = tested on: RPMI-8226 leukemia
[22] = tested on: NCI/ADR-RES ovarian
[23] = tested on: SK-OV-3 ovarian
[24] = tested on: A498 renal
[25] = tested on: KM12 colon
[26] = tested on: OVCAR-4 ovarian
[27] = tested on: MDA-N
[28] = tested on: PC-3 prostate
[29] = tested on: NCI-H460 lung
[30] = tested on: MDA-MB-231 breast
[31] = tested on: TK-10 renal
[32] = tested on: 786-0 renal
[33] = tested on: MALME-3M melanoma
[34] = tested on: NCI-H522 lung
[35] = tested on: HL-60(TB) leukemia
[36] = tested on: SF-539 CNS
[37] = tested on: SF-295 CNS
[38] = tested on: MOLT-4 leukemia
[39] = tested on: SNB-19 CNS
[40] = tested on: RXF 393 renal
[41] = tested on: HCT-116 colon
[42] = tested on: ACHN renal
[43] = tested on: NCI-H23 lung
[44] = tested on: SN12C renal
[45] = tested on: SF-268 CNS
[46] = tested on: HS 578T breast
[47] = tested on: SK-MEL-5 melanoma
[48] = tested on: HOP-92 NSCLC
[49] = tested on: DU-145 prostate
[50] = tested on: NCI-H226 lung
[51] = tested on: CCRF-CEM leukemia
[52] = tested on: U251 CNS
[53] = tested on: EKVX NSCLC
[54] = tested on: HOP-62 NSCLC
[55] = tested on: OVCAR-3 ovarian
[56] = tested on: SNB-75 CNS
[57] = tested on: K-562 leukemia
[58] = tested on: M14 melanoma
[59] = tested on: OVCAR-5 ovarian

Measured: TGI

Oc1ccc(C(c2ccc(O)cc2)c2ccc(O)cc2)cc1
32.4 µM: [25]
34.5 µM: [24]
41.5 µM: [35]
75.3 µM: [14]
38.4 µM: [4]
43.9 µM: [44]
66.1 µM: [39]
67.3 µM: [50]
41 µM: [10]
63.4 µM: [31]
35 µM: [41]
35.2 µM: [12]
> 100 µM: [5] | [16] | [37] | [45]
40 µM: [7] | [8]
42 µM: [23]
20.8 µM: [17]
29.8 µM: [2]
32.9 µM: [34]
46 µM: [36]
60.5 µM: [48]
30.6 µM: [47]
46.8 µM: [53]
83.7 µM: [52]
52.4 µM: [9]
52.2 µM: [38]
44.6 µM: [13]
56.8 µM: [21]
41.8 µM: [30]
66.5 µM: [28]
81.6 µM: [49]
55.3 µM: [18]
34.8 µM: [32]
92.6 µM: [51]
41.6 µM: [20]
45.7 µM: [43]
56.1 µM: [46]
56 µM: [27]
54.2 µM: [1]
44 µM: [33]
29.1 µM: [26]
32.6 µM: [19]
55 µM: [3]
46.1 µM: [11]
44.2 µM: [22]
90.8 µM: [42]
45 µM: [6]
46.3 µM: [29]
88.1 µM: [15]
39.5 µM: [40]

O=c1ccn(COC(COCc2ccccc2)COCc2ccccc2)c(=O)[nH]1
> 100 µM: [1] | [2] | [3] | [4] | [54] | [55] | [5] | [6] | [7] | [8] | [9] | [10] | [11] | [12] | [13] | [14] | [15] | [17] | [18] | [19] | [20] | [21] | [22] | [23] | [56] | [24] | [25] | [57] | [26] | [27] | [28] | [29] | [30] | [31] | [33] | [58] | [35] | [37] | [38] | [59] | [39] | [40] | [41] | [43] | [44] | [46] | [47] | [48] | [49] | [50] | [51] | [52]

NC(Cc1ccc(N(CCCl)CCCl)cc1)C(=O)NC(CCC(=O)O)C(=O)O (centres undefined)
> 100 µM: [1] | [2] | [3] | [4] | [54] | [55] | [5] | [6] | [7] | [8] | [9] | [10] | [11] | [12] | [13] | [14] | [15] | [16] | [17] | [18] | [19] | [20] | [21] | [22] | [23] | [56] | [24] | [25] | [57] | [26] | [27] | [28] | [29] | [30] | [31] | [32] | [33] | [34] | [58] | [35] | [36] | [37] | [38] | [59] | [39] | [40] | [41] | [42] | [43] | [44] | [45] | [46] | [47] | [48] | [49] | [50] | [51] | [52] | [53]
